Where a name gives a salt, the structure may show the parent alone. Bounds are passed on as bounds.

The target of this assay is SHP2 (Homo sapiens (Human), UniProt Q06124). Nature of the assay: SHP2 Allosteric Inhibition Assay (DiFMUP prompt fluorescence). The class given is biochemical. The settings on record: 0.25 nM SHP2 activated with 0.5 μM peptide IRS1_pY1172(dPEG8)pY1222; substrate DiFMUP 100 μM; 25° C.
Sequence of SHP2 (Q06124 whole entry): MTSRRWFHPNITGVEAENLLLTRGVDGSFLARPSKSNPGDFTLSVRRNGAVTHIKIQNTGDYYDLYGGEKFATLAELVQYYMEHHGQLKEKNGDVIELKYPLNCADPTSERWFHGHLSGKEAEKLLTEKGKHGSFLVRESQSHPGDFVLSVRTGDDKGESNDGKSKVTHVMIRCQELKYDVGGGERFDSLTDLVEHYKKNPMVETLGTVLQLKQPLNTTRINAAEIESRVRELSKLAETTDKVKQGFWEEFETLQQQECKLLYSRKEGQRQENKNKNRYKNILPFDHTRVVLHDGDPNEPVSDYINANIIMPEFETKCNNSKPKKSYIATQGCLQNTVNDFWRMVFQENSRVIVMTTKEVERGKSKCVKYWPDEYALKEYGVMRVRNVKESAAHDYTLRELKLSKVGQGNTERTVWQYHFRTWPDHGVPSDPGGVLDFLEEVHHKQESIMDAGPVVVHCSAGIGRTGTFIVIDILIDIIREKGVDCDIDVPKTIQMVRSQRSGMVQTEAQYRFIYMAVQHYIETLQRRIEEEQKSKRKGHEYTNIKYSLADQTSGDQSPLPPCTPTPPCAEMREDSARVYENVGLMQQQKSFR

With `CC1(N)CCN(c2cnc3c(Oc4cnccc4Cl)n[nH]c3n2)CC1` [Compound 509, 1-(3-((4-Chloropyridin-3-yl)oxy)-1H-pyrazolo[3,4-b]pyrazin-6-yl)-4-methylpiperidin-4-amine hydrochloride], the IC50 is 1000 to 10000 nM.

With `CC1(N)CCN(c2cnc3c(Oc4cccnc4Cl)n[nH]c3n2)CC1` [Compound 510, 1-(3-((2-chloropyridin-3-yl)oxy)-1H-pyrazolo[3,4-b]pyrazin-6-yl)-4-methylpiperidin-4-amine], the IC50 was < 1000 nM.

For `Cn1ccc(Sc2n[nH]c3nc(N4CCC(C)(CN)CC4)cnc23)cc1=O` [Compound 511, 4-((6-(4-(aminomethyl)-4-methylpiperidin-1-yl)-1H-pyrazolo[3,4-b]pyrazin-3-yl)thio)-1-methylpyridin-2(1H)-one], the IC50 is < 1000 nM.

In the case of `C[C@@H]1OCC2(CCN(c3cnc4c(Oc5ccnc(Cl)c5Cl)n[nH]c4n3)CC2)[C@@H]1N` [Compound 512, (3S,4S)-8-(3-((2,3-dichloropyridin-4-yl)oxy)-1H-pyrazolo[3,4-b]pyrazin-6-yl)-3-methyl-2-oxa-8-azaspiro[4.5]decan-4-amine], the IC50 is < 1000 nM.

Take `CC1(CN)CCN(c2cnc3c(Sc4ccn5nccc5c4)n[nH]c3n2)CC1` [Compound 513, (4-methyl-1-(3-(pyrazolo[1,5-a]pyridin-5-ylthio)-1H-pyrazolo[3,4-b]pyrazin-6-yl)piperidin-4-yl)methanamine]: the IC50 was < 1000 nM.

Regarding `CC1(CN)CCN(c2cnc3c(Sc4ccnc5[nH]ccc45)n[nH]c3n2)CC1` [Compound 515, (1-(3-((1H-pyrrolo[2,3-b]pyridin-4-yl)thio)-1H-pyrazolo[3,4-b]pyrazin-6-yl)-4-methylpiperidin-4-yl)methanamine], the IC50 is < 1000 nM.

Take `CC1(CN)CCN(c2cnc3c(Sc4ccc5cccnc5c4Cl)n[nH]c3n2)CC1` [Compound 516, (1-(3-((8-chloroquinolin-7-yl)thio)-1H-pyrazolo[3,4-b]pyrazin-6-yl)-4-methylpiperidin-4-yl)methanamine]: the half-inhibitory concentration (IC50) was < 1000 nM.

Regarding `Cc1nccc(Oc2n[nH]c3nc(N4CCC5(CC4)CO[C@@H](C)[C@H]5N)cnc23)c1Cl` [Compound 517, (3S,4S)-8-(3-((3-chloro-2-methylpyridin-4-yl)oxy)-1H-pyrazolo[3,4-b]pyrazin-6-yl)-3-methyl-2-oxa-8-azaspiro[4.5]decan-4-amine], the IC50 is < 1000 nM.

For the compound `CC1(CN)CCN(c2cnc3c(Oc4cc(N)nc(Cl)c4Cl)n[nH]c3n2)CC1` [Compound 518, 4-((6-(4-(aminomethyl)-4-methylpiperidin-1-yl)-1H-pyrazolo[3,4-b]pyrazin-3-yl)oxy)-5,6-dichloropyridin-2-amine hydrochloride], the 50% inhibitory concentration (IC50) is < 1000 nM.

Regarding `C[C@@H]1OCC2(CCN(c3cnc4c(N5CCCc6c5ccc(C#N)c6[C@@H]5CC(=O)N(C)C5)n[nH]c4n3)CC2)[C@@H]1N` [Compound 519], the IC50 is < 1000 nM.

With `C[C@@H]1OCC2(CCN(c3cnc4c(N5CCCc6c([C@H]7CC(=O)N(C)C7)cccc65)n[nH]c4n3)CC2)[C@@H]1N` [Compound 521], the IC50 was < 1000 nM.

As for `C[C@@H]1OCC2(CCN(c3cnc4c(N5CCCc6c5ccc(C#N)c6[C@@H]5CCCO5)n[nH]c4n3)CC2)[C@@H]1N` [Compound 522], the IC50 is < 1000 nM.

For the compound `C[C@@H]1OCC2(CCN(c3cnc4c(N5CCCc6c([C@@H]7CC(=O)N(C)C7)cccc65)n[nH]c4n3)CC2)[C@@H]1N` [Compound 523], the IC50 is < 1000 nM.

As for `C[C@@H]1OCC2(CCN(c3cnc4c(N5CCCc6c5ccc(C#N)c6[C@H]5CCCO5)n[nH]c4n3)CC2)[C@@H]1N` [Compound 524], the IC50 was < 1000 nM.

As to `C[C@@H]1OCC2(CCN(c3cnc4c(N5CCCc6c5ccc(C#N)c6[C@H]5CC(=O)N(C)C5)n[nH]c4n3)CC2)[C@@H]1N` [Compound 525], the IC50 was < 1000 nM.

Consider `C[C@@H]1OCC2(CCN(c3cnc4c(N5CCN([C@H]6C[C@@](C)(O)C6)c6cc(C#N)ccc65)n[nH]c4n3)CC2)[C@@H]1N` [Compound 526], for which the IC50 is < 1000 nM.

`C[C@@H]1OCC2(CCN(c3cnc4c(N5CCN([C@H]6C[C@](C)(O)C6)c6cc(C#N)ccc65)n[nH]c4n3)CC2)[C@@H]1N` [Compound 527]: the half-inhibitory concentration (IC50) was < 1000 nM.

Regarding `C[C@@H]1OCC2(CCN(c3cnc4c(N5CCCc6c5ccc(C#N)c6CC#N)n[nH]c4n3)CC2)[C@@H]1N` [Compound 528], the IC50 is < 1000 nM.

As to `C[C@@H]1OCC2(CCN(c3cnc4c(N5CCN(CCF)c6cc(C#N)ccc65)n[nH]c4n3)CC2)[C@@H]1N` [Compound 529], the IC50 was < 1000 nM.

Turning to `C[C@@H]1OCC2(CCN(c3cnc4c(N5CCN(C6CC(F)(F)C6)c6cc(C#N)ccc65)n[nH]c4n3)CC2)[C@@H]1N` [Compound 530], the IC50 was < 1000 nM.

On to `C[C@@H]1OCC2(CCN(c3cnc4c(N5CCCc6ncsc65)n[nH]c4n3)CC2)[C@@H]1N` [Compound 531], for which the IC50 was < 1000 nM.

With `C[C@@H]1OCC2(CCN(c3cnc4c(N5CCN(C67CC(F)(C6)C7)c6cc(C#N)ccc65)n[nH]c4n3)CC2)[C@@H]1N` [Compound 532], the half-maximal inhibitory concentration (IC50) was < 1000 nM.

With `CO[C@H]1C[C@H](N2CCN(c3n[nH]c4nc(N5CCC6(CC5)CO[C@@H](C)[C@H]6N)cnc34)c3ccc(C#N)cc32)C1` [compound 472], the IC50 was in the range of 1000 to 10000 nM.

In general, IC50 refers to the concentration needed to halve the response being measured.
